# Measured values: patent US20140127231A1, “p38 MAPK Pathway Inhibitors as Female-Specific Therapeutics” (UNIVERSITY OF VERMONT, priority 2012, published 2014)
# “Also recorded” adds a separate entry of the source.
# How the values were obtained:
# [1] = test system: experimental autoimmune encephalomyelitis (EAE); experiment: Active EAE, 2×MOG35-55+CFA, clinical course (Example 1/2); format: in vivo, C57BL/6J (B6) mice; conditions: for Clinical EAE course: daily treatment from D0, 5 mg/kg/d IP
# Method: (§1) EAE was induced in female C57BL/6J mice as described previously (Noubade et al., 2007, J Clin Invest., 117(11):3507-3518). Mice were injected subcutaneously with an emulsion containing 200 μg of MOG35-55 peptide ([…] (SEQ ID NO: 1) and complete Freund adjuvant (CFA; Sigma-Aldrich) supplemented with 200 μg of Mycobacterium tuberculosis H37RA (Difco Laboratories) in the posterior right and left flank; 1 week later, all mice were similarly injected at 2 sites on the right and left flank anterior of the initial injection sites (2×MOG35-55+CFA). Mice received 5 mg/kg/d SB203580 dihydrochloride (Tocris) by IP injection in a total volume of 200 μL or an equal volume of carrier every day from the day of immunization.
# EAE was induced in B10.BR, MKK6-Tg, and dn-p38-Tg mice by immunizing with a single injection of 200 μg of MOG97-114 (TCFFRDHSYQEEAAVELK (SEQ ID NO: 2)) or PLP180-209 ([…] (SEQ ID NO: 3)) in CFA. Immediately thereafter, each animal received 200 ng of PTX (List Biologic Laboratories) by IV injection. Mice were scored daily starting at day 10 after injection as previously described (Noubade et al., 2007, J Clin Invest., 117(11):3507-3518). Clinical quantitative trait variables were generated as previously described (Butterfield et al., 1998, J Immunol., 161(4):1860-1867).
# Age-matched male and female C57BL/6J (B6) mice were treated with the p38 MAPK inhibitor SB203580 (SB) starting at the time of immunization for the induction of EAE with myelin oligodendrocyte glycoprotein peptide 35-55 (MOG35-55) and complete Freund's adjuvant (CFA). Clinical EAE course in male and female B6 mice immunized with 2×MOG35-55-CFA treated daily with either carrier or SB starting on D0. […] In separate experiments, Clinical EAE course in female B6 mice immunized with 2×MOG35-55-CFA and randomly selected for daily treatment with either carrier or SB upon reaching a clinical score≧1. It was observed that disease progression could also be halted in female mice if the inhibitor was administered at the first onset of clinical signs (FIG. 1B).
# [2] = test system: TH17 and TH1 cells in CNS-infiltrating cells; experiment: CNS-infiltrating cells of treated EAE mice, intracellular cytokine staining and flow cytometry; format: in vivo, C57BL/6J (B6) mice; conditions: female B6 mice treated daily, D30 post-immunization
# Description: Female B6 mice were immunized for EAE as described for FIG. 1 and treated daily with carrier or SB. On D30 post-immunization, CNS (brain and spinal cord) cells were harvested and analyzed by intracellular staining and flow cytometry. Relative percentages (out of CD4+TCRβ+ population) of IL-17+, IFN-γ+, or IL-17+ IFN-γ+ cells (FIG. 2A), and percentages of CD4+TCRβ+ cells (out of CD45+ cells) (FIG. 2B). DLN cells were collected on D20 and restimulated with MOG35-55 for 3 days. Production of IFN-γ+(FIG. 2C) or IL-17 (FIG. 2D) was assessed by ELISA.
# as §1
# Animals were perfused with saline and brains and spinal cords removed. A single-cell suspension was obtained and passed through a 70-μm strainer. Mononuclear cells were obtained by Percoll gradient (37%/70%) centrifugation and collected from the interphase. Cells were washed and stimulated for 4 hours with PMA/ionomycin in the presence of brefeldin A (Golgi Plug; BD Biosciences). […]
# To examine the mechanism of EAE prevention by SB, the TH1 and TH17 effector subsets were analyzed in treated female mice. […] On D30 post-immunization, CNS (brain and spinal cord) cells were harvested and analyzed by intracellular staining and flow cytometry. […] Draining lymph node (DLN) cells were collected on D20 and restimulated with MOG35-55 for 3 days, and production of IFN-γ and IL-17 was assessed by ELISA.
# [3] = female B6 mice, treatment from D0 stopped after 30 days
structure (smiles),measurement,setting,value
C[S+]([O-])c1ccc(-c2nc(-c3ccncc3)c(-c3ccc(F)cc3)[nH]2)cc1 (stereo not shown) [SB203580],Clinical EAE course,[1]; female B6 mice,female-specific therapy for EAE; also recorded: ameliorated EAE
same,Clinical EAE course,"[1]; female B6 mice, listed as SB",fully prevented disease; also recorded: completely inhibits EAE
same,Disease progression (clinical EAE course),"[1]; female B6 mice, daily treatment started upon reaching clinical score ≧1",halted
same,Disease severity on readministration,"[1]; female B6 mice, re-treated from D41 thru D60",modest reduction and stabilization of their disease severity
same,EAE severity reached after discontinuing treatment,[1]; [3],equivalent severity to those seen in carrier-treated mice
same,Time to appearance of clinical signs of EAE after discontinuing treatment,[1]; [3],2 to 3 days
same,Clinical EAE course,"[1]; male B6 mice, listed as SB",completely unresponsive
same,IFN-γ production by TH1 cells,[2]; CNS cells,did not suppress IFN-γ production
same,IL-17 production by TH17 cells,"[2]; CNS cells, listed as SB",inhibits IL-17 production by TH17 cells; also recorded: specifically inhibited IL-17 production; also recorded: only partially inhibits IL-17 production
same,Percentage or number of infiltrating CD4+ T cells in the CNS,[2],did not decrease the percentage or number of infiltrating CD4+ T cells
